#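 These data come from cells grown in 96-well plates and exposed to compound for 48 hours at five concentrations. GI50: concentration for 50% inhibition of growth. TGI: concentration producing complete growth inhibition.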
# Assays:
# Assay in all cases: NCI-60 cell line screen, 48 h
# [1] = tested on: HCT-116 colon
# [2] = tested on: HOP-92 NSCLC
# [3] = tested on: KM12 colon
# [4] = tested on: OVCAR-3 ovarian
# [5] = tested on: OVCAR-4 ovarian
# [6] = tested on: SF-539 CNS
# [7] = tested on: SK-MEL-5 melanoma
# [8] = tested on: U251 CNS
# [9] = tested on: UACC-257 melanoma
# [10] = tested on: NCI-H522 lung
SMILES,GI50 [1],TGI [1],GI50 [2],TGI [2],GI50 [3],TGI [3],GI50 [4],TGI [4],GI50 [5],TGI [5],GI50 [6],TGI [6],GI50 [7],TGI [7],GI50 [8],TGI [8],GI50 [9],TGI [9],TGI [10],GI50 [10]
O=C1OC(c2ccccc2)(c2cc(Br)c(O)c(Br)c2)c2ccccc21 (configuration not stated),15.6 µM,29.1 µM,16.6 µM,40.5 µM,21.9 µM,60.5 µM,18.1 µM,36.4 µM,22.7 µM,78.9 µM,26.6 µM,80.6 µM,14.5 µM,30.7 µM,16.9 µM,38 µM,35.4 µM,> 100 µM,–,–
COc1ccc2oc(C(=O)O)c3c2c1CCC3,–,> 100 µM,–,> 100 µM,–,–,–,> 100 µM,–,> 100 µM,–,> 100 µM,–,> 100 µM,–,> 100 µM,–,> 100 µM,–,–
O=C1c2ccccc2C(=O)N1C/C=C/CO,–,> 100 µM,–,–,–,> 100 µM,–,> 100 µM,–,> 100 µM,–,> 100 µM,–,> 100 µM,–,> 100 µM,–,> 100 µM,> 100 µM,–
OC1C2CCC1C1C3C=CC(C3)C21 (configuration not stated),–,> 100 µM,–,> 100 µM,–,> 100 µM,–,> 100 µM,–,> 100 µM,–,–,–,> 100 µM,–,> 100 µM,–,> 100 µM,> 100 µM,–
O=C(NO)c1ccc(Cn2c(=O)n(-c3ccccc3F)c(=O)c3ccccc32)cc1,1.14 µM,3.19 µM,1.77 µM,4.75 µM,–,–,2.15 µM,6.41 µM,1.9 µM,12.9 µM,1.53 µM,4.58 µM,1.51 µM,2.96 µM,1.55 µM,3.16 µM,1.25 µM,3.22 µM,2.05 µM,0.542 µM

# — PubChem BioAssay (NCI)
